Measured values taken from ChEMBL document CHEMBL1141678 (Eur J Med Chem, 2008).

Key:
Cytochrome P450 3A4 [1] = biological target: T1, Cytochrome P450 3A4 (Homo sapiens, UniProt P08684); experiment: Inhibition of human recombinant CYP3A4 in presence of reduced glutathione; assay type: ADME; details: recombinant enzyme
Cytochrome P450 2C9 [2] = biological target: T2, Cytochrome P450 2C9 (Homo sapiens, UniProt P11712); experiment: Inhibition of human recombinant CYP2C9 in presence of reduced glutathione; assay type: ADME; details: recombinant enzyme
T2 sequence (P11712 whole entry): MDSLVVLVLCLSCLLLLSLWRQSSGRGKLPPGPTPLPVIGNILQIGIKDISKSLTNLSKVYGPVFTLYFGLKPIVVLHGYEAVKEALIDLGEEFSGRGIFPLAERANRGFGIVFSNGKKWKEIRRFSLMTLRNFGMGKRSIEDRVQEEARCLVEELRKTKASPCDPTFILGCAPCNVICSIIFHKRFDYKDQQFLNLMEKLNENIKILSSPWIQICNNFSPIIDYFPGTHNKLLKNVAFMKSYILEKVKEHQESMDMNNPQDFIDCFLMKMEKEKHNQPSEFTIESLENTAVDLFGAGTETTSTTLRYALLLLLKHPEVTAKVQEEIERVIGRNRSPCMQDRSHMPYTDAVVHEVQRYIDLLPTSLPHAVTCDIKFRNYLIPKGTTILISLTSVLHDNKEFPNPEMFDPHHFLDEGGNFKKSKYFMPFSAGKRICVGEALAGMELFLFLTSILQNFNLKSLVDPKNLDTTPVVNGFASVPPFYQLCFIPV

Cytochrome P450 2D6 [3] = biological target: T3, Cytochrome P450 2D6 (Homo sapiens, UniProt P10635); experiment: Inhibition of human recombinant CYP2D6 in presence of reduced glutathione; assay type: ADME; details: recombinant enzyme
T3 sequence (P10635 whole entry): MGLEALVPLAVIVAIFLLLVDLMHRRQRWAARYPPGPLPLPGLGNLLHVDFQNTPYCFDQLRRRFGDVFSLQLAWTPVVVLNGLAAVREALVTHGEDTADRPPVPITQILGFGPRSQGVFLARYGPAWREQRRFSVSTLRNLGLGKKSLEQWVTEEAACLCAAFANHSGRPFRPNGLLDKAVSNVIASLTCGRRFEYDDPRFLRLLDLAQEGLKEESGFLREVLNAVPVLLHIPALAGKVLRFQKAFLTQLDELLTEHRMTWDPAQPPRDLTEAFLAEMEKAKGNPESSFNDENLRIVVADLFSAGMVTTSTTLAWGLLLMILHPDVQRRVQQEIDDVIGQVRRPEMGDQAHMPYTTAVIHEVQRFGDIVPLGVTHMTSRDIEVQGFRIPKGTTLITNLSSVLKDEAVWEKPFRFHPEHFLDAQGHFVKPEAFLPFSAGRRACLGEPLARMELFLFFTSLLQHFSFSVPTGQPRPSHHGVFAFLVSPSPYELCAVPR

Cytochrome P450 2B6 [4] = biological target: T4, Cytochrome P450 2B6 (Homo sapiens, UniProt P20813); experiment: Inhibition of human recombinant CYP2B6 in presence of reduced glutathione; assay type: ADME; details: recombinant enzyme
T4 sequence (P20813 whole entry): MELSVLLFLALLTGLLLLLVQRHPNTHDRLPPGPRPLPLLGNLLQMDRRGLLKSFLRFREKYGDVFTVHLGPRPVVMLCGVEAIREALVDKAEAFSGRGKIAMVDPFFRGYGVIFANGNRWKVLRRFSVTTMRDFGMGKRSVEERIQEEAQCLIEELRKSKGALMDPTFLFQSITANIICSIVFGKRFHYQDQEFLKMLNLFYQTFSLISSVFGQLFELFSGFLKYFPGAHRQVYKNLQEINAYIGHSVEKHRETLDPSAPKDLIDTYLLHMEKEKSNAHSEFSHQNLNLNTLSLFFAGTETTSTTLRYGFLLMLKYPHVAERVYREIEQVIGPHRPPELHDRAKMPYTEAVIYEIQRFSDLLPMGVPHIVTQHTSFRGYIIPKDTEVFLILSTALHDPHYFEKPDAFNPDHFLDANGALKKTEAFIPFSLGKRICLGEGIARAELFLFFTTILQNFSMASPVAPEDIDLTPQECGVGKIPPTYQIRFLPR

Cytochrome P450 1A2 = biological target: T5, Cytochrome P450 1A2 (Homo sapiens, UniProt P05177); experiment: Inhibition of human recombinant CYP1A2; details: for log(1/IC50): human
T5 sequence (P05177 whole entry): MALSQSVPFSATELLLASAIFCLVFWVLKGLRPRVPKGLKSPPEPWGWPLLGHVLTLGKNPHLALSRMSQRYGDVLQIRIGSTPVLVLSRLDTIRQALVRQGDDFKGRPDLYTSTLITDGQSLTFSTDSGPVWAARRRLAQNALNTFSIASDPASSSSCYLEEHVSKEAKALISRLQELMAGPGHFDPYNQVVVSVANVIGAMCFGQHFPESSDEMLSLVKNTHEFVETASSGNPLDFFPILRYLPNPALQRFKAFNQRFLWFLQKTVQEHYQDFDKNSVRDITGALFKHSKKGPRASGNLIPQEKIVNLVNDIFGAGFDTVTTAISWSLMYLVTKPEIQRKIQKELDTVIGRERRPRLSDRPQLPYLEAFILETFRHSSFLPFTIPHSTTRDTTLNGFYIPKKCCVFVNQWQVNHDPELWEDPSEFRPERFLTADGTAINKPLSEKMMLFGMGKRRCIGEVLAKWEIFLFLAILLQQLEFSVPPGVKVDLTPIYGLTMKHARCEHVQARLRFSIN

Cytochrome P450 2C9 [5] = biological target: T2, Cytochrome P450 2C9; experiment: Inhibition of human recombinant CYP2C9; assay type: ADME
Cytochrome P450 2D6 [6] = biological target: T3, Cytochrome P450 2D6; experiment: Inhibition of human recombinant CYP2D6; assay type: ADME
Cytochrome P450 3A4 [7] = biological target: T1, Cytochrome P450 3A4; experiment: Inhibition of human recombinant CYP3A4; assay type: ADME
Cytochrome P450 2B6 [8] = biological target: T4, Cytochrome P450 2B6; experiment: Inhibition of human recombinant CYP2B6; assay type: ADME
CYP2B6 = biological target: T6, CYP2B6 (Homo sapiens, UniProt P20813); experiment: Inhibition of human recombinant CYP2B6 at 100 uM; assay type: ADME
T6 sequence (P20813 whole entry): T4 sequence (P20813 whole entry)

T1 sequence (P08684 whole entry): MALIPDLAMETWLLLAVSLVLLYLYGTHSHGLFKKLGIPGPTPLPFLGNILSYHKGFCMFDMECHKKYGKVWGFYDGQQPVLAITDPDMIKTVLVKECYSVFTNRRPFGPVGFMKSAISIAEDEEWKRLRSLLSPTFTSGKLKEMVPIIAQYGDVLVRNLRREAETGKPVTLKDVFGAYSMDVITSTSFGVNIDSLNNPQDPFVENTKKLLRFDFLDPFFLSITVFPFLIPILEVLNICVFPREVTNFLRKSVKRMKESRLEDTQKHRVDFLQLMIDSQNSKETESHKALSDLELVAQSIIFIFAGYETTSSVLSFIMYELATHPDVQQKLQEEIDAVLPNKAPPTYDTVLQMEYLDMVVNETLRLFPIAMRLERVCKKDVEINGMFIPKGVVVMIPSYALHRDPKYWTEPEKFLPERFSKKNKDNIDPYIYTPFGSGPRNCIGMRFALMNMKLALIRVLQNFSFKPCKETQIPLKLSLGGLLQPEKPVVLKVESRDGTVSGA

| SMILES | Activity (Cytochrome P450 3A4 [1]) | Activity (Cytochrome P450 2C9 [2]) | Activity (Cytochrome P450 2D6 [3]) | Activity (Cytochrome P450 2B6 [4]) | IC50 (Cytochrome P450 1A2) [µM] | log(1/IC50) (Cytochrome P450 1A2; recombinant CYP1A2) | IC50 (Cytochrome P450 2C9 [5]) [µM] | IC50 (Cytochrome P450 2D6 [6]) [µM] | log(1/IC50) (Cytochrome P450 1A2; recombinant enzyme) [mM] | IC50 (Cytochrome P450 3A4 [7]) [µM] | IC50 (Cytochrome P450 2B6 [8]) [µM] | inhibition at 100 µM (CYP2B6) [%] |
| --- | --- | --- | --- | --- | --- | --- | --- | --- | --- | --- | --- | --- |
| COc1cc(/C=C/C(=O)/C=C/c2cc(OC)c(O)c(OC)c2)cc(OC)c1O | Not Active | Not Active | Not Active | Not Active | 75.2 |  | 59 | 82.7 | 1.124 | 13.2 | 24.8 | > 20 |
| Cc1cc(/C=C/C(=O)/C=C/c2cc(C)c(O)c(C)c2)cc(C)c1O | Not Active | Not Active | Not Active | Not Active | 30.4 | 1.517 | 62.8 | 13.2 |  | 40.3 | 44.8 | > 20 |
| COc1cc(/C=C/C(=O)CC(=O)/C=C/c2ccc(O)c(OC)c2)ccc1O [CURCUMIN] |  |  |  |  | 40 |  |  | 50.3 |  | 16.3 | 24.5 |  |

The next lines start with the values.

| Activity (Cytochrome P450 3A4 [1]) | Activity (Cytochrome P450 2C9 [2]) | Activity (Cytochrome P450 2D6 [3]) | Activity (Cytochrome P450 2B6 [4]) | IC50 (Cytochrome P450 1A2) [µM] | log(1/IC50) (Cytochrome P450 1A2; recombinant CYP1A2) | IC50 (Cytochrome P450 2C9 [5]) [µM] | IC50 (Cytochrome P450 2D6 [6]) [µM] | log(1/IC50) (Cytochrome P450 1A2; recombinant enzyme) [mM] | IC50 (Cytochrome P450 3A4 [7]) [µM] | IC50 (Cytochrome P450 2B6 [8]) [µM] | inhibition at 100 µM (CYP2B6) [%] | SMILES |
| --- | --- | --- | --- | --- | --- | --- | --- | --- | --- | --- | --- | --- |
| Not Active | Not Active | Not Active | Not Active | 42.8 | 1.369 | 55 | 119 |  |  |  |  | CC(C)(C)c1cc(/C=C2\CC/C(=C\c3cc(C(C)(C)C)c(O)c(C(C)(C)C)c3)C2=O)cc(C(C)(C)C)c1O |
| Not Active | Not Active | Not Active | Not Active |  |  |  |  |  | 38.3 | 70 | > 20 | COc1cc(/C=C2\CC/C(=C\c3cc(OC)c(O)c(OC)c3)C2=O)cc(OC)c1O |
